Laboratory results as given in ChEMBL document CHEMBL1201862, “PubChem BioAssay data set” (2004).
Calls of active or inactive are those of the source.

Columns and labels:
[1] = target: Eukaryotic translation initiation factor 4E (Mus musculus, UniProt P63073); assay: blockers of eIF4G binding by eIF4E – biochemical, TR-FRET, dose response (AID 855); type: functional;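 note: potency for disrupting eIF4E binding to eIF4GI seen as loss of FRET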
[2] = system: Streptococcus sp. 'group A'; assay: Streptococcus pyogenes SK(-)GAS viability under kanamycin – luminescence, BacTiterGlo, confirmation, counter-screen for streptokinase expression inhibitor project, dose response (AID 1900); type: functional, organism-based
Streptokinase A = target: T1, Streptokinase A (Streptococcus pyogenes serotype M1, UniProt P10520); assay: viability-normalized secreted streptokinase activity reduction – plasminogen activation absorbance, OD405, dose response (AID 1914); type: functional, Streptococcus pyogenes M1 GAS;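 note: secreted streptokinase activity via plasminogen activation per viability signal from cell pellet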
T1 sequence (P10520 whole entry): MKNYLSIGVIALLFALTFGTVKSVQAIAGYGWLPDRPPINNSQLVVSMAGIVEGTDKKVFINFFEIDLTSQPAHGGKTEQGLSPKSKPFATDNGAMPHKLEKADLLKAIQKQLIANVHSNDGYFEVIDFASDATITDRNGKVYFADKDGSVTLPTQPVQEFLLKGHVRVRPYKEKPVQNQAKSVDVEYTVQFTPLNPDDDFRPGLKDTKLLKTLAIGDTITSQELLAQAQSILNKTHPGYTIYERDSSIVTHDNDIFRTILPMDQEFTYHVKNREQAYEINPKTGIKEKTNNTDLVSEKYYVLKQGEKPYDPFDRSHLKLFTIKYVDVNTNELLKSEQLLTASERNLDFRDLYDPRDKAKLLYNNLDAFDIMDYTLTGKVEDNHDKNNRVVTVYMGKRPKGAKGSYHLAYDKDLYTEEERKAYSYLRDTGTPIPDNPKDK

[3] = Trypanosoma cruzi growth suppression in host cells – NIH3T3 host cells, beta-gal luminescence, confirmation (AID 2044); type: functional, cell-based;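 note: intracellular parasites grown in NIH/3T3 mouse fibroblasts as host cells; luminescent beta-galactosidase reporter signal from transgenic T. cruzi replicating inside host cells; inhibitors lower the luminescence signal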
[4] = target: T2, Calpain-2 catalytic subunit (Sus scrofa, UniProt P43367); assay: m-calpain protease blockers, concentration series – biochemical, fluorogenic peptide substrate, dose response (AID 1420); type: functional
T2 sequence (P43367 whole entry): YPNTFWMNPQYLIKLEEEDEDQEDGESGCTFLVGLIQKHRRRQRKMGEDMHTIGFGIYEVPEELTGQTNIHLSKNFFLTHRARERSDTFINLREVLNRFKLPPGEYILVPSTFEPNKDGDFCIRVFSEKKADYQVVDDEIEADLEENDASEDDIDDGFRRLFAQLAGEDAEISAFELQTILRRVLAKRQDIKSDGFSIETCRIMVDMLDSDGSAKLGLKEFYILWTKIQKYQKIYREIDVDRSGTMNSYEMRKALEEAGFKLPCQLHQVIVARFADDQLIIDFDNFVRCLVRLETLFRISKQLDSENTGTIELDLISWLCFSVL

[5] = NIH3T3 cell viability loss – ATP luminescence, mouse fibroblasts, counter-screen, dose response (AID 2010); type: functional, cell-based;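 note: cells exposed to compound for about 90 hours before reading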
Streptococcus = assay: GAS UMAA2166 growth inhibition – luminescence, BacTiterGlo, counter-screen for streptokinase expression inhibitor project, dose response (AID 1915); type: functional, organism-based;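 note: potency for reduction of bacterial viability or growth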
[6] = viability loss in Vero cells – cytotoxicity control for Vif-APOBEC3G degradation inhibitor project, dose response (AID 1117358); type: functional; conditions: Vero
Prothrombin = Prothrombin (Homo sapiens, UniProt P00734); assay: Thrombin 1536 HTS Dose Response Confirmation. [Related pubchem assays: 1046 (Thrombin 1536 HTS; hits were confirmed in this assay)]; type: functional
[7] = target: Peroxisome proliferator-activated receptor gamma/Nuclear receptor coactivator 1 (Homo sapiens, UniProt P37231); assay: (§1) TR-FRET dose response biochemical High Throughput Screening assay for agonists of the steroid receptor coactivator 1 (SRC-1) recruitment by the peroxisome proliferator-activated receptor gamma (PPAR gamma): non-selective agonists. [Related pubchem assays (depositor defined):AID1300, AID1808, AID504735, AID631]; type: protein assay
Chain of Peroxisome proliferator-activated receptor gamma/Nuclear receptor coactivator 1 (P37231 whole entry): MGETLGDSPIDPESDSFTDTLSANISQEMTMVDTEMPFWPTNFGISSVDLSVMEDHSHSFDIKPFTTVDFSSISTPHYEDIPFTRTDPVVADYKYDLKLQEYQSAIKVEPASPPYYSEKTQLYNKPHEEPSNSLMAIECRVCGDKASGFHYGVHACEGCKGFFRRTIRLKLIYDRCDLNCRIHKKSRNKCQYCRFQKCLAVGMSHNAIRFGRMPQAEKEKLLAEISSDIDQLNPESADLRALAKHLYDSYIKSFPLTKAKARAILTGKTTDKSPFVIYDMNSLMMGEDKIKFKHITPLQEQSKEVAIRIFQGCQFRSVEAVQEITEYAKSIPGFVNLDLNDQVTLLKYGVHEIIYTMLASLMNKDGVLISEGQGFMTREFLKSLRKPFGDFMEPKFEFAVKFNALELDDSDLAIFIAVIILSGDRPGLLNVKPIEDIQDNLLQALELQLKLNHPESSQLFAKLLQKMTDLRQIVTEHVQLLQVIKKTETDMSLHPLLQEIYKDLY
Chain of Peroxisome proliferator-activated receptor gamma/Nuclear receptor coactivator 1 (Q15788 whole entry, further chain): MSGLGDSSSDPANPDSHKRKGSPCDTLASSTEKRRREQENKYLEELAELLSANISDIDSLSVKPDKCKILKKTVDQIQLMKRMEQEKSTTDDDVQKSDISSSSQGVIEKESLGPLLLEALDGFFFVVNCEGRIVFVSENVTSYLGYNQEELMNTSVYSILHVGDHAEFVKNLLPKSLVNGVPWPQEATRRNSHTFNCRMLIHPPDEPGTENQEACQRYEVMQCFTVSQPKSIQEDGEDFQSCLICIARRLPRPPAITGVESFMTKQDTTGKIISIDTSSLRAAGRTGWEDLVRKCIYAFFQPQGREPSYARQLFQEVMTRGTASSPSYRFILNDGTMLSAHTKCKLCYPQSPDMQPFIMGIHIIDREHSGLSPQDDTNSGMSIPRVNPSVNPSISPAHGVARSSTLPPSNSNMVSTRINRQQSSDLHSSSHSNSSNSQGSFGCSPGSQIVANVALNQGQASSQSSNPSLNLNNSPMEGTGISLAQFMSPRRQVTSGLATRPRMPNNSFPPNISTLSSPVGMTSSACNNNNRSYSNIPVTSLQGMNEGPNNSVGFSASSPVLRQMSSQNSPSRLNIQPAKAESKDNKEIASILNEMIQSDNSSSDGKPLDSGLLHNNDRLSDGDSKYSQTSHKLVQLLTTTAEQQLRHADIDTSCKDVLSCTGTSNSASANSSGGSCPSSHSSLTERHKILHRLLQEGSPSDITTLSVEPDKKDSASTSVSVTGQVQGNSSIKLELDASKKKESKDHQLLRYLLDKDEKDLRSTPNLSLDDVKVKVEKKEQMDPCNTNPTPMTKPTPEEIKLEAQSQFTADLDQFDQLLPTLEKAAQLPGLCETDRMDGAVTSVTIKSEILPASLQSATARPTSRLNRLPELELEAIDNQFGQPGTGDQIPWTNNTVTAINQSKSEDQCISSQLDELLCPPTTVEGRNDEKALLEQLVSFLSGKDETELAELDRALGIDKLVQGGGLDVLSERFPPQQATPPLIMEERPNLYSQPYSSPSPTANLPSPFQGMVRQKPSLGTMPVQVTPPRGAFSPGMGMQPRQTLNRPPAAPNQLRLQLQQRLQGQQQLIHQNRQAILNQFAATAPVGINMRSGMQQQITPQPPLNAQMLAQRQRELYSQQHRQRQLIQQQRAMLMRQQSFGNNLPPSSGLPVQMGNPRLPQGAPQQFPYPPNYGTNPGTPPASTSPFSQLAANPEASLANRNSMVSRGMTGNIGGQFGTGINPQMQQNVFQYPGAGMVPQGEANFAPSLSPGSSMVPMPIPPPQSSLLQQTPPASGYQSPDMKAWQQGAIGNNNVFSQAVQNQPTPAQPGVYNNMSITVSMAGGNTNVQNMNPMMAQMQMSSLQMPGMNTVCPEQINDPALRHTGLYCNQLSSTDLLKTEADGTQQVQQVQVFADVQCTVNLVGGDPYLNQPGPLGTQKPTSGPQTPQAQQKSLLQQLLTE

[8] = target: Peroxisome proliferator-activated receptor gamma/Nuclear receptor coactivator 3 (Homo sapiens, UniProt P37231); assay: as §1, with “3 (SRC-3)” for “1 (SRC-1)”, “assays: 1301 (Confirmation screen.), 1048 (Primary screen.)]” for “assays (depositor defined):AID1300, AID1808, AID504735, AID631]”; type: functional
[9] = target: Peroxisome proliferator-activated receptor gamma/Nuclear receptor coactivator 2 (Homo sapiens, UniProt P37231); assay: TR-FRET dose response biochemical High Throughput Screening assay for agonists of the steroid receptor coactivator 2 (SRC-2) recruitment by the peroxisome proliferator-activated receptor gamma (PPAR gamma): non-selective agonists. [Related pubchem assays: 1297, 1032 ]; type: functional
Chain of Peroxisome proliferator-activated receptor gamma/Nuclear receptor coactivator 2 (P37231 whole entry): as the sequence (P37231 whole entry) above
Chain of Peroxisome proliferator-activated receptor gamma/Nuclear receptor coactivator 2 (Q15596 whole entry, further chain): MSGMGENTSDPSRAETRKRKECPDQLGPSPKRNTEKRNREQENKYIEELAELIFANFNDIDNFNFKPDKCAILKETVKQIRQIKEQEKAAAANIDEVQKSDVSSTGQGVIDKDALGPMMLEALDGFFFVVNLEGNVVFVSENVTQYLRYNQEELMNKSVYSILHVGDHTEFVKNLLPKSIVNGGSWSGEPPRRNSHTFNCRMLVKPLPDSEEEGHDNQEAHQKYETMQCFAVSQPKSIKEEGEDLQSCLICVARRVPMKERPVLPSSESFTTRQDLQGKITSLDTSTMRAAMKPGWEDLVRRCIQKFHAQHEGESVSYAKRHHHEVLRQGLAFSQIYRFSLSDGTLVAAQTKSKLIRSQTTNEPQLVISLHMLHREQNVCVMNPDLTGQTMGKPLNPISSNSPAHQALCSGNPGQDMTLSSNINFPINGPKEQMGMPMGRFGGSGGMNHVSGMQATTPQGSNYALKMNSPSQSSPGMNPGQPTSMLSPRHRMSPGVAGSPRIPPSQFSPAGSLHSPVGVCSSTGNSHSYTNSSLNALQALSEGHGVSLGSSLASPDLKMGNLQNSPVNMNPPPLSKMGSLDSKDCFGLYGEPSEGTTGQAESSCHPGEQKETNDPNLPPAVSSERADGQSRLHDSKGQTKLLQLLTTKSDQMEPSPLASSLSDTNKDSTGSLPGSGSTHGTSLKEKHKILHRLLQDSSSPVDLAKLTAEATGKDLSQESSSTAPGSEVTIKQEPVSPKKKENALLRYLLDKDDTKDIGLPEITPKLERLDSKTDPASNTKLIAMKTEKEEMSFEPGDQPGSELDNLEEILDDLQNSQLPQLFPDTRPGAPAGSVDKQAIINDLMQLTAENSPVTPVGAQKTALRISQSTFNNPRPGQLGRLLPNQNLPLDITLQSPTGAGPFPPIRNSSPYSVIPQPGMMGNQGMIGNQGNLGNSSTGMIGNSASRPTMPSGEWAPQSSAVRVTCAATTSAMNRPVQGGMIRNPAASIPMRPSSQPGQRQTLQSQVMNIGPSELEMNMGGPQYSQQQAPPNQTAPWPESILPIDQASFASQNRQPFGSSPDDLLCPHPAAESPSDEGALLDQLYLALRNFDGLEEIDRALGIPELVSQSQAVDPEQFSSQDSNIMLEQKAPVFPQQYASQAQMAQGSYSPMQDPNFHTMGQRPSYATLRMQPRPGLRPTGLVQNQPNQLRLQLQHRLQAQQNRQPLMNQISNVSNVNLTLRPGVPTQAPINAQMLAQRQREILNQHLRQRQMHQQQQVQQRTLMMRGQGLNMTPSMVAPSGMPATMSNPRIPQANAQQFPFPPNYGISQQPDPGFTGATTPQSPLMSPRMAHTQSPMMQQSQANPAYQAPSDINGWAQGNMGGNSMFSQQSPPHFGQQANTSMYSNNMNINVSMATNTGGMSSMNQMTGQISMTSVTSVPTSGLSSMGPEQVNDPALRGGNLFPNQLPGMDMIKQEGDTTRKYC

Leucine aminopeptidase = target: T3, Leucine aminopeptidase (Plasmodium falciparum 3D7, UniProt Q8IL11); assay: P. falciparum M17LAP inhibitors, primary screen, biochemical, fluorogenic H-Leu-NHMec substrate, 1536-well (AID 1619); type: functional
T3 sequence (Q8IL11 whole entry): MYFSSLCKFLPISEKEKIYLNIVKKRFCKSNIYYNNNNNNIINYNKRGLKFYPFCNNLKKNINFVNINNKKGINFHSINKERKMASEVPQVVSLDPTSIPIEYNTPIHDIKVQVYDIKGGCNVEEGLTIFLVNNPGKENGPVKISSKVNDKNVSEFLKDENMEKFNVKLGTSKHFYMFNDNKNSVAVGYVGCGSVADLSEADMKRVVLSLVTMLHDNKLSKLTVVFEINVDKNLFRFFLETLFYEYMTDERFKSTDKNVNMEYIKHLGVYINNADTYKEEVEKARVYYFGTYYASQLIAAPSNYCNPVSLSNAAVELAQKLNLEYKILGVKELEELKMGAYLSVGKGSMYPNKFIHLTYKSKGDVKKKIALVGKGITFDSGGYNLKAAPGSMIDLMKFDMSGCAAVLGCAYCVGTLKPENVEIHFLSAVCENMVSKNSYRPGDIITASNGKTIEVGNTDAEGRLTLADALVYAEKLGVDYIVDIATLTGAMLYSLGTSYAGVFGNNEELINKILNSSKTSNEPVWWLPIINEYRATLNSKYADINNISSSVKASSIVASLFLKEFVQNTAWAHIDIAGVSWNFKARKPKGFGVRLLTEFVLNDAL

[10] = Luminescence Cell-Based Dose Confirmation HTS to Identify Activators of 5'UTR Stem-Loop Driven Alpha-Synuclein mRNA Translation in H4 Neuroglioblastoma Cells. [Related pubchem assays: 1829 (Project Summary), 1814 (Primary HTS)]; type: functional
[11] = Luminescence Cell-Based Dose Response HTS to Identify Activators of Luciferase Translation or Activity in H4 […] Cells. [Related pubchem assays: 1829 (Project Summary), 1814 (Primary HTS)]; type: functional
H4 = assay: Luminescence Cell-Based Dose Response HTS to Identify Activators of 5'UTR Stem-Loop Driven Prion Protein mRNA Translation in H4 Neuroglioblastoma Cells. [Related pubchem assays: 1829 (Project Summary), 1814 (Primary HTS)]; type: functional; conditions: Homo sapiens
[12] = HPDE-C7 pancreatic duct cell viability loss – fluorescence, HTS (AID 430); type: functional, cell-based; conditions: Homo sapiens
[13] = viability loss of HPDE-C7K cells – cell-based, fluorescence, HTS, primary screen (AID 431); type: functional; conditions: Homo sapiens
[14] = target: DNA dC->dU-editing enzyme APOBEC-3G (Homo sapiens, UniProt Q9HC16); assay: Dose Response confirmation of small molecule APOBEC3G DNA Deaminase Inhibitors via a fluorescence-based single-stranded DNA deaminase assay. [Related pubchem assays (depositor defined):AID493012, AID493028]; type: functional
Chain of DNA dC->dU-editing enzyme APOBEC-3G (Q9HC16 whole entry): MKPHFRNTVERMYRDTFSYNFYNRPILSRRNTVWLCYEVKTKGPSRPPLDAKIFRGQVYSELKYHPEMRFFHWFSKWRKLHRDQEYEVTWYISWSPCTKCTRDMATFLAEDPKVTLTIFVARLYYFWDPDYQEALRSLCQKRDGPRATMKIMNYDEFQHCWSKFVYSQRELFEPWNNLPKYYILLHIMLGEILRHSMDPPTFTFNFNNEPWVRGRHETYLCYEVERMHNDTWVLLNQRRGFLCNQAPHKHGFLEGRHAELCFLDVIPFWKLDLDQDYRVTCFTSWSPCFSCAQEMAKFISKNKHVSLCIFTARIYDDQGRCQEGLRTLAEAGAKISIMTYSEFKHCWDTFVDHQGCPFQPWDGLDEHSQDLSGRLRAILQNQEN

[15] = target: Voltage-dependent T-type calcium channel subunit alpha-1H (Homo sapiens, UniProt O95180); type: functional;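 note: channel activity triggered by adding a high calcium stimulation buffer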

Chain of Eukaryotic translation initiation factor 4E (P63073 whole entry): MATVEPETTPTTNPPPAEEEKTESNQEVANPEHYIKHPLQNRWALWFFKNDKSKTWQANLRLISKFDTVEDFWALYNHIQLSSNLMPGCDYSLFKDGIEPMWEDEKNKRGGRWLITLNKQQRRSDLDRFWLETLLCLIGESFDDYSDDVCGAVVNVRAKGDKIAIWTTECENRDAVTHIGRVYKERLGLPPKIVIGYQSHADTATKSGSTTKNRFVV

Question: Which IC50 [1] does the source give for CC(C)c1ccc(C(=O)NCc2ccc(Cl)cc2)cc1 here?
Answer: The IC50 was > 64 µM (inactive).

Question: With O=S(=O)(Nc1ccc(-c2csc(-c3ccccc3)n2)cc1)c1ccc(F)cc1 as the compound, how does the EC50 [2] read?
Answer: The EC50 was 2.05 µM (active).

Question: What about the EC50 (Streptokinase A) of the same compound?
Answer: Its EC50 is 8.48 µM (active).

Question: What about the EC50 [3] of the same compound?
Answer: The EC50 was 2.45 µM (active).

Question: What about the IC50 [4] of the same compound?
Answer: Its IC50 is 8.02 µM (not active).

Question: What about the EC50 [5] of the same compound?
Answer: Its EC50 is > 60 µM (not active).

Question: What about the EC50 (Streptococcus) of the same compound?
Answer: The EC50 was 5.63 µM (active).

Question: Which CC50 [6] does the source give for COC(=O)c1c(NC(=O)CC2NCCNC2=O)sc2c1CCCC2 (stereo not given) here?
Answer: Its CC50 is > 40 µM (active).

Question: With CC(=O)Nc1ccc(S(=O)(=O)n2cnc3cc(C)c(C)cc32)cc1 as the compound, how does the IC50 (Prothrombin) read?
Answer: The IC50 was > 50 µM (not active).

Question: Which EC50 [7] does the source give for NC(=O)CSc1oc(-c2cccs2)nc1S(=O)(=O)c1ccccc1 here?
Answer: The EC50 was 10.9 µM (inactive).

Question: What about the EC50 [8] of the same compound?
Answer: Its EC50 is > 79.4 µM (not active).

Question: And the EC50 [9]?
Answer: The EC50 was 10.8 µM (not active).

Question: Which IC50 [4] does the source give for Cn1c(N)c(C(=O)COC(=O)c2ccc(Cl)c(S(=O)(=O)N3CCCCC3)c2)c(=O)n(C)c1=O here?
Answer: Its IC50 is 29.2 µM (not active).

Question: For Cc1cc(N2CCCCC2)nc2ccc(NC(=O)c3ccc(Br)o3)cc12, which IC50 [4] is on record?
Answer: The IC50 was 3.3 µM (not active).

Question: With CCOc1ccc(NC(=O)CSc2nc(N)c(-c3ccccc3)c(=O)[nH]2)cc1 as the compound, how does the IC50 (Leucine aminopeptidase) read?
Answer: Its IC50 is 5.72 µM (active).

Question: Which results are given for COc1cccc(-c2nn(C)c3sc(C(=O)Nc4ccc5c(c4)OCCO5)cc23)c1?
Answer: EC50 [10]: 5.99 µM (active); EC50 [11]: 22.9 µM (active); EC50 [2]: 6.53 µM (active); EC50 (H4): > 120 µM (not active); EC50 (Streptokinase A): > 150 µM (not active); EC50 (Streptococcus): 13.9 µM (active); CC50 [6]: > 40 µM (active)

Question: Which results are given for O=C(Nc1cccnc1)c1sc(Nc2ccccc2F)nc1-c1ccccc1?
Answer: EC50 [7]: 6.48 µM (active); EC50 [8]: 28.3 µM (not active); EC50 [9]: 6.83 µM (active)

Question: Which EC50 [12] does the source give for CN1CCN(C(=O)CSc2nc(-c3cccs3)cc(-c3cccs3)c2C#N)CC1 here?
Answer: The EC50 was 10 µM (active).

Question: And the EC50 [13]?
Answer: The EC50 was 9.41 µM (active).

Question: Which CC50 [6] does the source give for CCOc1ccc2nc(O)c(CN(Cc3ccco3)C(=O)c3ccc(Br)cc3)cc2c1 here?
Answer: The CC50 was 32.4 µM (active).

Question: With COc1ccccc1NS(=O)(=O)c1cc(N)ccc1N1CCCCC1 as the compound, how does the IC50 [14] read?
Answer: Its IC50 is 72.5 µM (active).

Question: For O=C(Nc1ccccc1)c1nnn(Cc2ccccc2)c1NC(=O)C(F)(F)F, which EC50 [15] is on record?
Answer: The EC50 was 4.59 µM (active).
